Measurements published in patent publication US20210238224A1, “METHOD OF CONSTRUCTING PROTAC BY USING DOUBLE TARGETS” (THE FIRST AFFILIATED HOSPITAL OF SUN YAT-SEN UNIVERSITY, priority 2018, published 2021).

Target: T1, Smad3 (Rattus norvegicus, UniProt P84025)
T1 construct: endogenous in cells; host or cells: NRK49F rat kidney fibroblasts, stimulated with TGF-β1
Assay: Western blot of Smad3 degradation in TGF-β1-stimulated rat kidney fibroblasts
Type: cell-based
Details: NRK49F cells, 48 hours, FIGS. 6(A), 6(B)
Method: Rat kidney fibroblasts (NRK49F cell line) are cultured in vitro, passage 1:3 or 1:4 to six-well plates before cell fusion, and are divided into a TGF-β1 control group (TGF-β1 10 ng/ml), a PROTAC-PEG action group (TGF-β1 10 ng/ml+PROTAC-PEG of different concentrations: 1, 5, 25, 125 nM), and a PROTAC-butanedioic acid action group (TGF-β1 10 ng/ml+PROTAC-butanedioic acid of different concentrations: 1, 5, 25, 125 nM); the cells are lysed after 48 hours of culture and are used for Western blot.

T1 sequence (P84025 whole entry): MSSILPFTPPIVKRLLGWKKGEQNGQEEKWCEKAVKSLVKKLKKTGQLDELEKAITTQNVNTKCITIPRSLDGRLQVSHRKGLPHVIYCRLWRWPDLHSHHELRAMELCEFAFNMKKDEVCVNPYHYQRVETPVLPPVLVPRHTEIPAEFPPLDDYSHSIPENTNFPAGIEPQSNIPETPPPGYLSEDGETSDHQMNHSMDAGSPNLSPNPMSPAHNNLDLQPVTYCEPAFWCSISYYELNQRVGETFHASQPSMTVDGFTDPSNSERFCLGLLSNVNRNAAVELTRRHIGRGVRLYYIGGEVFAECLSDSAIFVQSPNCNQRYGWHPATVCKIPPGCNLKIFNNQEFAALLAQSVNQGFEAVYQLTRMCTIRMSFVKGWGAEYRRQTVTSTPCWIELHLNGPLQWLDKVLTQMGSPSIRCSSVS

effective concentration for Smad3 degradation (TGF-β1 10 ng/ml): 25 nM
Compound: C[C@@H](NC(=O)[C@@H]1C[C@@H](O)CN1C(=O)[C@@H](NC(=O)CCC(=O)NC(c1cccnc1)c1cc2ccccc2o1)C(C)(C)C)c1ccc(-c2cc(N)cs2)cc1 (stereo partly drawn) [PROTAC-butanedioic acid]
degradation of target protein Smad3 (Western blot) (TGF-β1 10 ng/ml + PROTAC 1, 5, 25, 125 nM): degrades the target protein Smad3 in a concentration-dependent manner | Smad3-degrading activity compared with PROTAC-PEG (TGF-β1 10 ng/ml): significantly higher than that of PROTAC-PEG
